Format in all cases: cell-based
Assay [1] concerns MCF7 cells (ATCC #HTB-22). The assay can be described thus: Cellular growth inhibition assay, MCF7 cells purchased from ATCC. Particulars: Homo sapiens, MCF7, 144 h, Table 8-A; MCF7 cells purchased from ATCC; six days; CellTiter-Glo; read-out: GI50. A digest of the protocol: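 MCF7 cells in RPMI 1640 with 10% FBS and 0.2 U/ml insulin, seeded at 1,500 cells/well (ATCC) or 225 cells/well (ECACC). Compounds added 24 h later, then 6 days at 37° C. Viability by CellTiter-Glo 2.0 luminescence. GI50 from four-parameter fit.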
A general note: In ATP-based viability assays light output follows the ATP content of the culture.

The subject of assay [2] is T-Rex 293 cells having increased expression of estrogen receptor alpha protein. The assay can be described thus: Cellular growth inhibition assay, T-Rex 293 cells, (+) doxycycline. The following applies: T-REx-293, 72 h, Table 7-A; T-Rex 293 cells with doxycycline (increased ERα expression); 72 hours; CellTiter-Glo; read-out: (+) Dox GI50. A digest of the protocol:
(§1)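 Viability read-out was CellTiter-Glo 2.0 luminescence after 72 h compound exposure, normalized to zero luminescence and fitted by four-parameter regression to give GI50. Cells were an ERα-inducible T-Rex 293 clone cultured with or without 3 ng/mL doxycycline in charcoal-stripped, phenol red-free medium.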

The test system of assay [3] is T-Rex 293 cells lacking increased expression of estrogen receptor alpha protein. The assay can be described thus: Cellular growth inhibition assay, T-Rex 293 cells, (−) doxycycline. Particulars: T-REx-293, 72 h, Table 7-A; T-Rex 293 cells without doxycycline (lacking increased ERα expression); 72 hours; CellTiter-Glo; read-out: (−) Dox GI50. A digest of the protocol:
as §1

Usually GI50 stands for the concentration giving 50% growth inhibition.

Structures are written as SMILES.

For `Cc1sc2c(c1C)C(c1ccc(N3CC(CN4CCC(C(=O)N5CC(c6ccc([C@@H]7c8ccc(O)cc8CC[C@@H]7c7ccccc7)cc6)C5)CC4)C3)cc1)=N[C@@H](Cc1ncco1)c1nnc(C)n1-2` [III-176], the GI50 in assay [1] is less than 50 nM; in assay [2], less than 50 nM; in assay [3], 50 to 500 nM.
Regarding `Cc1sc2c(c1C)C(c1ccc(N3CC(CN4CCC(O)(CN5CC(c6ccc([C@@H]7c8ccc(O)cc8CC[C@@H]7c7ccccc7)cc6)C5)CC4)C3)cc1)=N[C@@H](C)c1nnc(C)n1-2` [III-177], the GI50 was 50 to 500 nM in assay [1], less than 50 nM in assay [2] and 50 to 500 nM in assay [3].
Turning to `Cc1sc2c(c1C)C(c1ccc(N3CC(CC4(O)CCN(c5ccc([C@@H]6c7ccc(O)cc7CC[C@@H]6c6ccccc6)cc5)CC4)C3)cc1)=N[C@@H](Cc1ncco1)c1nnc(C)n1-2` [III-178], the GI50 is less than 50 nM in assay [1], less than 50 nM in assay [2] and 50 to 500 nM in assay [3].
For `Cc1sc2c(c1C)C(c1ccc(N3CC(CN4CCN(C(=O)C5CN(c6ccc([C@@H]7c8ccc(O)cc8CC[C@@H]7c7ccccc7)cc6)C5)CC4)C3)cc1)=N[C@@H](Cc1ncco1)c1nnc(C)n1-2` [III-179], the GI50 in assay [1], in assay [2] and in assay [3] was less than 50 nM throughout.
In the case of `Cc1sc2c(c1C)C(c1ccc(N3CC(CN4CCC(O)(CN5CC(c6ccc([C@@H]7c8ccc(O)cc8CC[C@@H]7c7ccccc7)cc6)C5)CC4)C3)cc1)=N[C@@H](Cc1ncco1)c1nnc(C)n1-2` [III-180], the GI50 is less than 50 nM in assay [1], less than 50 nM in assay [2] and 50 to 500 nM in assay [3].
As to `Cc1sc2c(c1C)C(c1ccc(N3CC(O)(CN4CCN(CC5CN(c6ccc([C@@H]7c8ccc(O)cc8CC[C@@H]7c7ccccc7)cc6)C5)CC4)C3)cc1)=N[C@@H](Cc1ncco1)c1nnc(C)n1-2` [III-181], the GI50 in assay [1] was less than 50 nM; in assay [2] it was less than 50 nM; in assay [3], 50 to 500 nM.
Regarding `Cc1sc2c(c1C)C(c1ccc(N3CCC(O)(CN4CCN(c5ccc([C@@H]6c7ccc(O)cc7CC[C@@H]6c6ccc(F)cc6F)cc5)CC4)CC3)cc1)=N[C@@H](C)c1nnc(C)n1-2` [III-182], the GI50 in assay [1] is 50 to 500 nM; in assay [2], less than 50 nM; in assay [3], 500 to 2500 nM.
The like results for `Cc1sc2c(c1C)C(c1ccc(N3CCC(O)(CN4CCN(c5ccc([C@H]6c7ccc(O)cc7CC[C@H]6c6ccc(F)cc6F)cc5)CC4)CC3)cc1)=N[C@@H](C)c1nnc(C)n1-2` [III-183] were, in that order, 50 to 500 nM, less than 50 nM and 500 to 2500 nM.
The like results for `Cc1sc2c(c1C)C(c1ccc(N3CCC(O)(CN4CCN(c5ccc([C@H]6c7ccc(O)cc7CC[C@H]6c6ccc(F)cc6)cc5)CC4)CC3)cc1)=N[C@@H](C)c1nnc(C)n1-2` [III-184] were, in that order, 50 to 500 nM, less than 50 nM and 50 to 500 nM.
As for `Cc1sc2c(c1C)C(c1ccc(N3CCC(O)(CN4CCN(c5ccc([C@@H]6c7ccc(O)cc7CC[C@@H]6c6ccc(F)cc6)cc5)CC4)CC3)cc1)=N[C@@H](C)c1nnc(C)n1-2` [III-185], the GI50 was less than 50 nM in assay [1], less than 50 nM in assay [2] and 500 to 2500 nM in assay [3].
Regarding `Cc1sc2c(c1C)C(c1ccc(N3CCC(O)(CN4CCN(c5cc(F)c([C@@H]6c7ccc(O)cc7CC[C@@H]6c6ccccc6)c(F)c5)CC4)CC3)cc1)=N[C@@H](C)c1nnc(C)n1-2` [III-186], the figures for the GI50 in assay [1], in assay [2] and in assay [3] were less than 50 nM, less than 50 nM and 500 to 2500 nM, respectively.
In the case of `Cc1sc2c(c1C)C(c1ccc(N3CCC(O)(CN4CCN(c5cc(F)c([C@H]6c7ccc(O)cc7CC[C@H]6c6ccccc6)c(F)c5)CC4)CC3)cc1)=N[C@@H](C)c1nnc(C)n1-2` [III-187], the GI50 is 50 to 500 nM in assay [1], less than 50 nM in assay [2] and 50 to 500 nM in assay [3].
As for `Cc1sc2c(c1C)C(c1ccc(N3CCC(O)(CN4CCN(c5ccc([C@@H]6c7ccc(C(=O)O)cc7CC[C@@H]6c6ccccc6)cc5)CC4)CC3)cc1)=N[C@@H](C)c1nnc(C)n1-2` [III-188], the GI50 in assay [1] is 50 to 500 nM; in assay [2], less than 50 nM; in assay [3], 50 to 500 nM.
As for `Cc1sc2c(c1C)C(c1ccc(N3CCC(O)(CN4CCN(c5ccc([C@H]6c7ccc(C(=O)O)cc7CC[C@H]6c6ccccc6)cc5)CC4)CC3)cc1)=N[C@@H](C)c1nnc(C)n1-2` [III-189], the GI50 in assay [1] was 50 to 500 nM; in assay [2] it was more than 2500 nM; in assay [3] it was more than 2500 nM.
As for `Cc1sc2c(c1C)C(c1ccc(N3CCC4(CCN(CC5CCN(c6ccc([C@@H]7c8ccc(O)cc8CC[C@@H]7c7ccccc7)cc6)CC5)CC4)C3)cc1)=N[C@@H](C)c1nnc(C)n1-2` [III-190], the GI50 in assay [1] is 50 to 500 nM; in assay [2], less than 50 nM; in assay [3], 500 to 2500 nM.
For `Cc1sc2c(c1C)C(c1ccc(N3CCC4(CCN(CC5CCC(c6ccc([C@@H]7c8ccc(O)cc8CC[C@@H]7c7ccccc7)cc6)CC5)C4)CC3)cc1)=N[C@@H](C)c1nnc(C)n1-2` (stereo partly drawn) [III-191], in that order: 50 to 500 nM, less than 50 nM and 50 to 500 nM.
For `Cc1sc2c(c1C)C(c1ccc(N3CCC(O)(CN4CCN(c5ccc([C@H]6c7ccc(O)cc7CC[C@H]6c6ccc(F)cc6F)cc5)CC4)CC3)cc1)=N[C@H](Cc1ncco1)c1nnc(C)n1-2` [III-192], in that order: more than 2500 nM, more than 2500 nM and more than 2500 nM.
The like results for `Cc1sc2c(c1C)C(c1ccc(N3CCC(O)(CN4CCN(c5ccc([C@@H]6c7ccc(O)cc7CC[C@@H]6c6ccc(F)cc6F)cc5)CC4)CC3)cc1)=N[C@H](Cc1ncco1)c1nnc(C)n1-2` [III-193] were, in that order, 50 to 500 nM, 50 to 500 nM and 500 to 2500 nM.
Consider `Cc1sc2c(c1C)C(c1ccc(N3CCC(O)(CN4CCN(c5cc(F)c([C@H]6c7ccc(O)cc7CC[C@H]6c6ccccc6)c(F)c5)CC4)CC3)cc1)=N[C@@H](Cc1ncco1)c1nnc(C)n1-2` [III-194], for which the GI50 in assay [1], in assay [2] and in assay [3] was more than 2500 nM in each case.
For the compound `Cc1sc2c(c1C)C(c1ccc(N3CCC(O)(CN4CCN(c5cc(F)c([C@H]6c7ccc(O)cc7CC[C@H]6c6ccccc6)c(F)c5)CC4)CC3)cc1)=N[C@H](Cc1ncco1)c1nnc(C)n1-2` [III-195], the values for the GI50 in assay [1], in assay [2] and in assay [3] were 500 to 2500 nM, more than 2500 nM and more than 2500 nM, respectively.
Consider `Cc1sc2c(c1C)C(c1ccc(N3CCC(O)(CN4CCN(c5cc(F)c([C@@H]6c7ccc(O)cc7CC[C@@H]6c6ccccc6)c(F)c5)CC4)CC3)cc1)=N[C@@H](Cc1ncco1)c1nnc(C)n1-2` [III-196], for which the GI50 was less than 50 nM in assay [1], less than 50 nM in assay [2] and 50 to 500 nM in assay [3].
As for `Cc1sc2c(c1C)C(c1ccc(N3CCC(O)(CN4CCN(c5cc(F)c([C@@H]6c7ccc(O)cc7CC[C@@H]6c6ccccc6)c(F)c5)CC4)CC3)cc1)=N[C@H](Cc1ncco1)c1nnc(C)n1-2` [III-197], the GI50 in assay [1] was 50 to 500 nM; in assay [2] it was less than 50 nM; in assay [3] it was 50 to 500 nM.
As for `Cc1sc2c(c1C)C(c1ccc(N3CCC(O)(CN4CCN(c5ccc([C@H]6c7ccc(C(=O)O)cc7CC[C@H]6c6ccccc6)cc5)CC4)CC3)cc1)=N[C@H](Cc1ncco1)c1nnc(C)n1-2` [III-198], the GI50 in assay [1], in assay [2] and in assay [3] was more than 2500 nM each time.
